Laboratory results reported in the supplement of paper PMC10307832.

Experiments:
Assay in all cases: relative viability (nuclei count vs DMSO), 5 days (fraction); higher = more cells survive
Vismodegib + Phenformin = compound: CS(=O)(=O)c1ccc(C(=O)Nc2ccc(Cl)c(-c3ccccn3)c2)c(Cl)c1 [Vismodegib] + N=C(N)NC(=N)NCCc1ccccc1 [Phenformin] (partner 250 µM)
Method in brief: (§1)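 Relative viability was taken as the ratio of nuclei in treated wells to nuclei in vehicle wells. Lung cancer cell lines in 1536-well plates received compounds by pin tool one day after seeding, either one drug alone or a fixed anchor-drug dose plus five library-drug doses (not always all listed) in √10 steps. Nuclei were counted on 4× images after 5 days of treatment, and values are medians of duplicate plates.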

Ruxolitinib + Crizotinib = compound: N#CC[C@H](C1CCCC1)n1cc(-c2ncnc3[nH]ccc23)cn1 [Ruxolitinib] + C[C@@H](Oc1cc(-c2cnn(C3CCNCC3)c2)cnc1N)c1c(Cl)ccc(F)c1Cl [Crizotinib] (partner 1 µM)
Method in brief: as §1

VE-821 + Pictilisib = compound: CS(=O)(=O)c1ccc(-c2cnc(N)c(C(=O)Nc3ccccc3)n2)cc1 [VE-821] + CS(=O)(=O)N1CCN(Cc2cc3nc(-c4cccc5[nH]ncc45)nc(N4CCOCC4)c3s2)CC1 [Pictilisib] (partner 1 µM)
Method in brief: as §1

Vismodegib + Olaparib = compound: CS(=O)(=O)c1ccc(C(=O)Nc2ccc(Cl)c(-c3ccccn3)c2)c(Cl)c1 [Vismodegib] + O=C(c1cc(Cc2n[nH]c(=O)c3ccccc23)ccc1F)N1CCN(C(=O)C2CC2)CC1 [Olaparib] (partner 8 µM)
Method in brief: as §1

Cell Line | relative viability (Vismodegib + Phenformin; first compound 0.08 µM) | relative viability (Vismodegib + Phenformin; first compound 0.253 µM) | relative viability (Vismodegib + Phenformin; first compound 0.8 µM) | relative viability (Vismodegib + Phenformin; first compound 2.53 µM) | relative viability (Vismodegib + Phenformin; first compound 8 µM) | relative viability (Ruxolitinib + Crizotinib; first compound 0.08 µM) | relative viability (Ruxolitinib + Crizotinib; first compound 0.253 µM) | relative viability (Ruxolitinib + Crizotinib; first compound 0.8 µM) | relative viability (Ruxolitinib + Crizotinib; first compound 2.53 µM) | relative viability (Ruxolitinib + Crizotinib; first compound 8 µM) | relative viability (VE-821 + Pictilisib; first compound 0.08 µM) | relative viability (VE-821 + Pictilisib; first compound 0.253 µM) | relative viability (VE-821 + Pictilisib; first compound 0.8 µM) | relative viability (VE-821 + Pictilisib; first compound 2.53 µM) | relative viability (VE-821 + Pictilisib; first compound 8 µM) | relative viability (Vismodegib + Olaparib; first compound 0.08 µM) | relative viability (Vismodegib + Olaparib; first compound 0.253 µM) | relative viability (Vismodegib + Olaparib; first compound 0.8 µM) | relative viability (Vismodegib + Olaparib; first compound 2.53 µM) | relative viability (Vismodegib + Olaparib; first compound 8 µM)
LU99A | 0.901 | 0.807 | 0.813 | 0.802 | 0.772 | 0.588 | 0.655 | 0.532 | 0.612 | 0.519 | 0.362 | 0.311 | 0.29 | 0.319 | 0.253 | 0.306 | 0.278 | 0.292 | 0.267 | 0.247
LXF-289 | 0.524 | 0.495 | 0.508 | 0.517 | 0.467 | 0.777 | 0.805 | 0.781 | 0.757 | 0.737 | 0.969 | 0.754 | 0.796 | 0.869 | 0.808 | 1.05 | 1.01 | 1.11 | 1.02 | 0.94
NCI-H23 | 0.765 | 0.728 | 0.806 | 0.742 | 0.731 | 0.457 | 0.527 | 0.71 | 0.43 | 0.488 | 0.554 | 0.458 | 0.506 | 0.469 | 0.277 | 0.321 | 0.277 | 0.26 | 0.296 | 0.409
NCI-H322M | 0.798 | 0.771 | 0.783 | 0.729 | 0.756 | 0.9 | 1.27 | 1.01 | 1.1 | 1.09 | 0.549 | – | 0.49 | 0.608 | 0.422 | 0.753 | 0.679 | 0.695 | 0.704 | 0.776
NCI-H358 | 0.345 | 0.418 | 0.359 | 0.329 | 0.292 | 0.677 | 0.577 | 0.686 | 0.512 | 0.417 | 0.383 | 0.273 | 0.408 | 0.359 | 0.38 | 0.564 | 0.597 | 0.525 | 0.521 | 0.667
NCI-H441 | 0.838 | 0.648 | 0.831 | 0.835 | 0.907 | 0.682 | 0.585 | 0.847 | 0.724 | 0.555 | 0.56 | 0.527 | 0.537 | 0.519 | 0.352 | 0.561 | – | 0.579 | 0.55 | 0.55
NCI-H460 | 0.516 | 0.512 | 0.561 | 0.508 | 0.595 | 0.985 | 1.02 | 1.01 | 0.803 | 0.447 | 0.416 | 0.355 | 0.288 | 0.488 | 0.325 | 0.413 | 0.409 | 0.437 | 0.382 | 0.439
NCI-H520 | 0.535 | 0.576 | 0.63 | 0.574 | 0.688 | – | 0.714 | 0.964 | 0.708 | 0.645 | 0.321 | 0.357 | – | 0.325 | 0.276 | 0.314 | 0.366 | 0.397 | 0.281 | 0.354
NCI-H596 | 0.71 | 0.737 | 0.748 | 0.769 | 0.767 | 0.994 | 0.98 | 1.19 | 0.919 | 0.912 | 0.416 | 0.4 | 0.431 | 0.431 | 0.385 | 0.749 | 0.488 | 0.653 | 0.706 | 0.844
NCI-H647 | 0.439 | 0.491 | 0.509 | 0.507 | 0.433 | 1.18 | 1.12 | 1.13 | 0.852 | 0.524 | 0.472 | 0.391 | – | 0.428 | 0.263 | 0.66 | 0.508 | 0.669 | 0.368 | 0.479
NCI-H650 | 0.469 | 0.417 | 0.45 | 0.418 | 0.393 | – | 0.77 | 0.846 | 0.644 | 0.54 | 0.882 | 0.927 | 0.731 | 0.985 | 0.88 | 0.385 | 0.385 | 0.396 | 0.316 | 0.387
NCI-H661 | 0.31 | 0.264 | 0.3 | 0.259 | 0.291 | 0.941 | 1.02 | 0.941 | – | 0.841 | 0.379 | 0.393 | 0.406 | 0.39 | 0.336 | 0.837 | 0.69 | 0.745 | 0.715 | 0.718
NCI-H727 | 0.52 | 0.58 | 0.592 | 0.524 | 0.444 | 0.93 | 0.799 | 1.1 | 0.832 | 0.962 | 0.418 | 0.314 | 0.232 | 0.458 | 0.227 | 0.66 | 0.683 | 0.76 | 0.724 | 0.749
NCI-H838 | 0.53 | 0.573 | 0.559 | 0.67 | 0.612 | 0.751 | 0.723 | 0.682 | 0.591 | 0.342 | 0.436 | 0.359 | 0.496 | 0.561 | 0.557 | 0.791 | 0.71 | 0.777 | 0.757 | 0.778
